Data set [1] is described as follows: Rat blood-brain barrier evaluation. It counts as in vivo. The following applies: SD rats, intragastric 10 mg/kg; for concentrations in brain tissues (in words): over time. The protocol: (1) Animal Administration and Sampling Method:
The study compound A1, the compound A41 and PXS-4728 were dissolved in normal saline to prepare solutions. The prepared solutions were separately administered by intragastric administration to SD rats at a dose of 10 mg/kg. […] At each time point, samples were collected from three SD rats.
On the day of the study, the animals were fixed to collect 0.15 mL of blood from the jugular vein at each set time point, and the whole blood samples were put into anticoagulation tubes containing EDTA-K2. After blood sampling was completed, heart perfusion was immediately performed for the animals, and following the heart perfusion, brain tissue samples were collected.
After the whole blood samples were centrifuged under the condition of 1,524 g for 10 min, top plasma samples were collected into sample tubes. The tissue samples were weighed, added with 20% of aqueous methanol solution at a weight-to-volume ratio of 1:5 (tissue:homogenate) and homogenized. The biological samples were stored at −40° C. to −20° C. for analysis.
(4) Sample Analysis Method:
(§1) Plasma sample: The samples to be tested were taken out of the refrigerator, naturally thawed at room temperature and then swirled for 5 min, and 20 μL of plasma sample was accurately pipetted into 1.5 mL centrifuge tubes. 100 μL of internal standard working solution (solution of 5 ng/mL verapamil and 50 ng/mL glibenclamide in acetonitrile) was added, and uniform mixing was performed. After 1 min of swirling, centrifugation was performed at 13,000 rpm for 8 min. 40 μL of supernate was accurately pipetted into a 96-well plate added with 160 μL water/well in advance. Uniform mixing was performed by swirling for 10 min, followed by LC-MS/MS assay.
as §1, with “Brain tissue” for “Plasma”, “50” for “20”, “250” for “100”, “30” for “40”, “150” for “160”
(5) Data Processing Method:
Analyst 1.6.2 from AB Sciex was used to output concentration results of tested compounds. Microsoft Excel was used to calculate parameters such as mean value, standard deviation and variation coefficient (excluding those outputted directly by Analyst 1.6.2).

The next data set is described as follows: Rat PK evaluation. It counts as in vivo. To be noted: plasma, SD rats; for bioavailability: n=3, read-out: F % (absolute bioavailability); for clearance: n=3, read-out: Cl_obs iv (clearance rate) (converted); for Vd: n=3, read-out: Vz_obs iv (apparent volume of distribution); for Tmax: n=3, median, read-out: Tmax po (time of maximum observed plasma concentration). The protocol: Animal Administration and Sample Collection:
The study compounds A1, A6, A32, A41 and A42 were each dissolved in normal saline to prepare solutions. The solutions of the compounds were separately administered to SD rats by intragastric administration at a dose of 5.0 mg/kg. Time points for blood collection were 15 min, 30 min, 1 h, 2 h, 4 h, 6 h, 8 h and 24 h.
The study compounds A1, A6, A32, A41 and A42 were each dissolved in normal saline to prepare solutions. The solutions of the compounds were separately administered to SD rats by intravenous push at a dose of 1.0 mg/kg. Time points for blood collection were 5 min, 15 min, 30 min, 1 h, 2 h, 4 h, 6 h, 8 h and 24 h.
Venous catheterization was performed the day before the administration. Subsequent to the administration, about 300 μL of blood was collected from the jugular vein and put into anticoagulation tubes containing EDTA-K2. Preparation was performed within 30 min after the blood collection. Plasma samples were obtained by centrifugation at 8,000 rpm for 6 min at 4° C., and were stored in a −80° C. refrigerator before plasma testing.
(1) the samples to be tested were taken out of the −80° C. refrigerator, naturally thawed at room temperature and then swirled for 5 min;
(2) 20 μL of plasma sample was accurately pipetted into a 1.5 mL centrifuge tube;
(3) 200 μL of internal standard working solution (solution of tolbutamide in methanol) with a concentration of 100 ng/mL was added, and uniform mixing was performed;
(4) after 5 min of swirling, centrifugation was performed at 12,000 rpm for 5 min;
(5) 50 μL of supernate was accurately pipetted into a 96-well plate added with 150 μL water/well in advance;
(6) uniform mixing was performed by swirling for 5 min, followed by LC-MS/MS assay.
Analyst 1.6.3 from AB Sciex was used to output concentration results of tested compounds. Microsoft Excel was used to calculate parameters such as mean value, standard deviation and variation coefficient (excluding those outputted directly by Analyst 1.6.3). Pharsight Phoenix 6.1 software NCA was adopted to calculate PK parameters (Tmax was median).

Where [2] appears, read: rat, plasma, oral, 0.167 h, read-out: Average Plasma concentration (N=3).
Where [3] appears, read: rat, plasma, oral, 1 h, read-out: Average Plasma concentration (N=3).
Setting [4] is: rat, plasma, oral, 6 h, read-out: Average Plasma concentration (N=3).
Where [5] appears, read: IV 1 mg/kg, n=3, read-out: AUCinf iv (area under plasma concentration-time curve 0-∞).
The mark [6] stands for this setting: IV 1 mg/kg, n=3, read-out: tz1/2 iv (terminal half-life) (converted).
The mark [7] stands for this setting: PO 5 mg/kg, n=3, read-out: AUCinf po (area under plasma concentration-time curve 0-∞).
Setting [8] is: PO 5 mg/kg, n=3, read-out: tz1/2 po (terminal half-life) (converted).

Structures can show the parent of a compound that is named as a salt. Where two headings read alike, the source gives them in different places.

As for `NC/C(=C\F)Cn1cc2c(n1)CCN(C1CC1)C2=O` [Compound A1, (E)-2-(2-(aminomethyl)-3-fluoroallyl)-5-cyclopropyl-2,5,6,7-tetrahydro-4H-pyrazolo[4,3-c]pyridin-4-one], in data set [1] (0.167 h), the “Average Brain tissue concentration (N=3)” value was “BLOQ”. In addition, in data set [1] (0.167 h), the “Mean brain tissue/plasma concentration ratio” value is recorded as 0←. For the same compound, the “concentrations in brain tissues (in words)” value in data set [1] was “below the limit of detection”. Besides, the concentration at 1 h in data set [1] (rat, brain, oral, 1 h, read-out: Average Brain tissue concentration (N=3)) was found to be 39.1 ng/g; in data set [1] (setting [3]), 1300 ng/mL. Besides, the concentration at 6 h in data set [1] (rat, brain, oral, 6 h, read-out: Average Brain tissue concentration (N=3)) came out at 31.3 ng/g; in data set [1] (setting [4]), 80.7 ng/mL. Also, in data set [1] (rat, brain/plasma, oral, 1 h, read-out: Mean brain tissue/plasma concentration ratio), the Kp at 1 h is 0.03. Moreover, the Kp at 6 h in data set [1] (rat, brain/plasma, oral, 6 h, read-out: Mean brain tissue/plasma concentration ratio) turned out to be 0.39. In addition, in data set [1] (setting [2]), the concentration at 0.167 h is 158 ng/mL. Also, the bioavailability in “Rat PK evaluation” (IV 1 mg/kg, PO 5 mg/kg) is 87%. Further, the AUC(0-inf) in the data set “Rat PK evaluation” (setting [5]) came to 545 ng·h/mL; in the data set “Rat PK evaluation” (setting [7]) it was 2370 ng·h/mL. In addition, the clearance in the data set “Rat PK evaluation” (IV 1 mg/kg) was 30.8 mL/min/kg. Further, in the data set “Rat PK evaluation” (IV 1 mg/kg), the Vd was found to be 2.31 L/kg. Also, the figures for the half-life in the data set “Rat PK evaluation” (setting [6]) and in the data set “Rat PK evaluation” (setting [8]) were 52.2 min and 70.2 min, respectively. In addition, the Tmax in the data set “Rat PK evaluation” (PO 5 mg/kg) was 120 min.

Regarding `CCN1CCc2nn(C/C(=C/F)CN)cc2C1=O` [Compound A6 hydrochloride, (E)-2-(2-(aminomethyl)-3-fluoroallyl)-5-ethyl-2,5,6,7-tetrahydro-4H-pyrazolo[4,3-c]pyridin-4-one], in “Rat PK evaluation” (IV 1 mg/kg, PO 5 mg/kg), the bioavailability was determined as 76.3%. For the same compound, the AUC(0-inf) in the data set “Rat PK evaluation” (setting [5]) was 445 ng·h/mL; in “Rat PK evaluation” (setting [7]) it was 1700 ng·h/mL. In addition, the clearance in the data set “Rat PK evaluation” (IV 1 mg/kg) was 37.8 mL/min/kg. Moreover, the Vd in “Rat PK evaluation” (IV 1 mg/kg) stood at 2.38 L/kg. The half-life is 43.8 min in “Rat PK evaluation” (setting [6]) and 65.4 min in the data set “Rat PK evaluation” (setting [8]). The Tmax in the data set “Rat PK evaluation” (PO 5 mg/kg) stood at 30 min.

For `Cl.NC/C(=C\F)Cn1cc2c(c1Cl)CCN(C1CC1)C2=O` [Compound A42 hydrochloride, (E)-2-(2-(aminomethyl)-3-fluoroallyl)-1-chloro-5-cyclopropyl-2,5,6,7-tetrahydro-4H-pyrrolo[3,4-c]pyridin-4-one], in the data set “Rat PK evaluation” (IV 1 mg/kg, PO 5 mg/kg), the bioavailability was 151%. The AUC(0-inf) in the data set “Rat PK evaluation” (setting [5]) amounted to 591 ng·h/mL; in “Rat PK evaluation” (setting [7]) it was 4480 ng·h/mL. Moreover, the clearance in the data set “Rat PK evaluation” (IV 1 mg/kg) was 29.5 mL/min/kg. Also, in the data set “Rat PK evaluation” (IV 1 mg/kg), the Vd was found to be 1.29 L/kg. The half-life was 31.8 min in “Rat PK evaluation” (setting [6]) and 79.8 min in the data set “Rat PK evaluation” (setting [8]). Besides, the Tmax in “Rat PK evaluation” (PO 5 mg/kg) is 60 min.

Take `Cl.NC/C(=C\F)Cn1cc2c(c1Br)CCN(C1CC1)C2=O` [Compound A32 hydrochloride, (E)-2-(2-(aminomethyl)-3-fluoroallyl)-1-bromo-5-cyclopropyl-2,5,6,7-tetrahydro-4H-pyrrolo[3,4-c]pyridin-4-one]: the bioavailability in “Rat PK evaluation” (IV 1 mg/kg, PO 5 mg/kg) is 173%. The figures for the AUC(0-inf) in the data set “Rat PK evaluation” (setting [5]) and in “Rat PK evaluation” (setting [7]) were 572 ng·h/mL and 4950 ng·h/mL, respectively. The clearance in “Rat PK evaluation” (IV 1 mg/kg) is 29.2 mL/min/kg. Besides, the Vd in “Rat PK evaluation” (IV 1 mg/kg) amounted to 1.2 L/kg. Also, the half-life in “Rat PK evaluation” (setting [6]) is 28.8 min; in the data set “Rat PK evaluation” (setting [8]), 45 min. For the same compound, the Tmax in “Rat PK evaluation” (PO 5 mg/kg) was determined as 15 min.

Regarding `NC/C(=C\F)Cn1cc2c(=O)n(C3CC3)ccc2n1` [Compound A41, (E)-2-(2-(aminomethyl)-3-fluoroallyl)-5-cyclopropyl-2,5-dihydro-4H-pyrazolo[4,3-c]pyridin-4-one], the “Average Brain tissue concentration (N=3)” value in data set [1] (0.167 h), in data set [1] (1 h) and in data set [1] (6 h) was “BLOQ” throughout. Also, the “concentrations in brain tissues (in words)” value in data set [1] is on record as “below the limit of detection”. Further, the concentration at 0.167 h in data set [1] (setting [2]) amounted to 624 ng/mL. The concentration at 1 h in data set [1] (setting [3]) is 1750 ng/mL. The concentration at 6 h in data set [1] (setting [4]) is 39.7 ng/mL. Besides, the bioavailability in the data set “Rat PK evaluation” (IV 1 mg/kg, PO 5 mg/kg) is 61.9%. In addition, the AUC(0-inf) was 531 ng·h/mL in “Rat PK evaluation” (setting [5]) and 1640 ng·h/mL in “Rat PK evaluation” (setting [7]). Moreover, in “Rat PK evaluation” (IV 1 mg/kg), the clearance was 31.5 mL/min/kg. For the same compound, in the data set “Rat PK evaluation” (IV 1 mg/kg), the Vd is 1.53 L/kg. Moreover, the figures for the half-life in the data set “Rat PK evaluation” (setting [6]) and in “Rat PK evaluation” (setting [8]) were 33.6 min and 107 min, respectively. For the same compound, in the data set “Rat PK evaluation” (PO 5 mg/kg), the Tmax came to 60 min.

For orientation: clearance means a measure of how efficiently the substance is removed, as volume per time.
